Our source for the IC50 values is patent US10123993B2, “Cyclic ureas as inhibitors of rock” (BRISTOL-MYERS SQUIBB COMPANY, priority 2015, dated 2018).

Sequence of ROCK2 (O75116 whole entry, species assumed): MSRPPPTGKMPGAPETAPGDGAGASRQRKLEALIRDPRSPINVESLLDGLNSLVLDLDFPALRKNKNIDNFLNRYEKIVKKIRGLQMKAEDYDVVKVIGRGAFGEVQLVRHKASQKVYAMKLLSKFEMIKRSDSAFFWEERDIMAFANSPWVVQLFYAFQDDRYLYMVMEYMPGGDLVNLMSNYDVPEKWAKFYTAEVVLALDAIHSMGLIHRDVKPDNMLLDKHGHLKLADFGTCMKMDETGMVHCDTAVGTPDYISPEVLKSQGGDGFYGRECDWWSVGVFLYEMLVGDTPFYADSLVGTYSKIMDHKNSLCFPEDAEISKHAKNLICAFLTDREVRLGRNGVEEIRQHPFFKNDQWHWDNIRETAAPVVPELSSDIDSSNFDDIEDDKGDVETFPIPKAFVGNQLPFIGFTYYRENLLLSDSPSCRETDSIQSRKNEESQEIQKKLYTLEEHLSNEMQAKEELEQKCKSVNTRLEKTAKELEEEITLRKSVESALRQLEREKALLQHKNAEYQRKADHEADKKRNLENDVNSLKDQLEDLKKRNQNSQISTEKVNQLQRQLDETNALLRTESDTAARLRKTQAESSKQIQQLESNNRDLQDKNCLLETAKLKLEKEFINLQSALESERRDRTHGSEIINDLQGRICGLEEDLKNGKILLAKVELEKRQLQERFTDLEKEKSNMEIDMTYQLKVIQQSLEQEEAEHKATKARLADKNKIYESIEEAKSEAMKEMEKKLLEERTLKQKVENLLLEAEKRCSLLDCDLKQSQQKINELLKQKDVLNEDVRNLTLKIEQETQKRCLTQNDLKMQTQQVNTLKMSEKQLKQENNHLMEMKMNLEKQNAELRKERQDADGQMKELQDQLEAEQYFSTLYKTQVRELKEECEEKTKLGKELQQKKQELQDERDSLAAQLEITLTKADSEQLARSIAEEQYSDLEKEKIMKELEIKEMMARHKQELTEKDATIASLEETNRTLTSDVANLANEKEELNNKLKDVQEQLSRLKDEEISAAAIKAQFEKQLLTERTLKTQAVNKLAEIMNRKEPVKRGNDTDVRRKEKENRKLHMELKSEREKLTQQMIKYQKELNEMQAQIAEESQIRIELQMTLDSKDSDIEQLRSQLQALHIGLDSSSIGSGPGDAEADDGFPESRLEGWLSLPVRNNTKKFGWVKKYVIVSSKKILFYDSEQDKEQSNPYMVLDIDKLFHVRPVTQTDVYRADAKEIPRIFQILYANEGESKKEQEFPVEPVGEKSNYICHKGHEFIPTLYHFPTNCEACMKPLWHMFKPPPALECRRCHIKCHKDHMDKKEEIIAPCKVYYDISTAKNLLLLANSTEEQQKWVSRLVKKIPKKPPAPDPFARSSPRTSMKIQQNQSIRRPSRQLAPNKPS

This test concerns the target ROCK2 (Homo sapiens, UniProt O75116). Put plainly: ROCK2 kinase inhibition assay (Caliper LABCHIP, FITC peptide substrate). It is filed as biochemical. The note with it: 5 μM ATP, 1.5 μM peptide substrate; value ranges. The essentials:
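Rho kinase with 5 μM ATP and 1.5 μM FITC-AHA-AKRRRLSSLRA-OH peptide in HEPES pH 7.5, 20 mM MgCl2, 0.015% Brij-35, 4 mM DTT, DMSO <2%. EDTA stop; phospho and non-phospho peptide separated on LabChip. IC50 from dose-response fit.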
The molecule `Cc1cccc(CN2CCN(c3ccc(-c4cn[nH]c4)cn3)C2=O)c1` [Example 234, 1-(5-(1H-pyrazol-4-yl)pyridin-2-yl)-3-(3-methylbenzyl)imidazolidin-2-one] came in with an IC50 of 0.0201 to 0.2 µM.

Molecule `N#Cc1cccc(CN2CCN(c3ccc(-c4cn[nH]c4)cn3)C2=O)c1` [Example 235, 3-((3-(5-(1H-pyrazol-4-yl)pyridin-2-yl)-2-oxoimidazolidin-1-yl)methyl)benzonitrile] showed an IC50 of 0.2 to 2 µM. On to `O=C1N(Cc2cccc(Cl)c2)CCN1c1ccc(-c2cn[nH]c2)cn1` [Example 237, 1-(5-(1H-pyrazol-4-yl)pyridin-2-yl)-3-(3-chlorobenzyl)imidazolidin-2-one], for which the IC50 lay within 0.0201 to 0.2 µM. Molecule `O=C1N(Cc2ccc(F)c(F)c2)CCN1c1ccc(-c2cn[nH]c2)cn1` [Example 238, 1-(5-(1H-pyrazol-4-yl)pyridin-2-yl)-3-(3,4-difluorobenzyl)imidazolidin-2-one] registered an IC50 of 0.2 to 2 µM.

In turn, `O=C(O)c1cccc(CN2CCN(c3ccc(-c4cn[nH]c4)cn3)C2=O)c1` [Example 239, 3-((3-(5-(1H-pyrazol-4-yl)pyridin-2-yl)-2-oxoimidazolidin-1-yl)methyl)benzoic acid] had an IC50 of 0.0201 to 0.2 µM. `O=C1N(Cc2cccc(C(F)(F)F)c2)CCN1c1ccc(-c2cn[nH]c2)cn1` [Example 240, 1-(5-(1H-pyrazol-4-yl)pyridin-2-yl)-3-(3-(trifluoromethyl)benzyl)imidazolidin-2-one] displayed an IC50 of 0.2 to 2 µM. Next, `O=C1N(Cc2ccc(Cl)c(Cl)c2)CCN1c1ccc(-c2cn[nH]c2)cn1` [Example 241, 1-(5-(1H-pyrazol-4-yl)pyridin-2-yl)-3-(3,4-dichlorobenzyl)imidazolidin-2-one]: 0.2 to 2 µM. For the molecule `O=C1N(Cc2cccnc2)CCN1c1ccc(-c2cn[nH]c2)cn1` [Example 242, 1-(5-(1H-pyrazol-4-yl)pyridin-2-yl)-3-(pyridin-3-ylmethyl)imidazolidin-2-one], the IC50 lay in the range of 0.2 to 2 µM.

Consider `O=C1N(Cc2ccccn2)CCN1c1ccc(-c2cn[nH]c2)cn1` [Example 243, 1-(5-(1H-pyrazol-4-yl)pyridin-2-yl)-3-(pyridin-2-ylmethyl)imidazolidin-2-one], for which the IC50 fell in the range of 0.2 to 2 µM. For `COc1nc(N2CCN(Cc3ccccc3F)C2=O)ccc1-c1cn[nH]c1` [Example 244, 1-(2-fluorobenzyl)-3-(6-methoxy-5-(1H-pyrazol-4-yl)pyridin-2-yl)imidazolidin-2-one], the 50% inhibitory concentration (IC50) was 0.0021 to 0.02 µM.

`COc1nc(N2CCN(Cc3ccc(F)cc3F)C2=O)ccc1-c1cn[nH]c1` [Example 245, 1-(2,4-difluorobenzyl)-3-(6-methoxy-5-(1H-pyrazol-4-yl)pyridin-2-yl)imidazolidin-2-one]: the IC50 was 0.0201 to 0.2 µM. Molecule `COc1nc(N2CCN(Cc3cc(F)ccc3F)C2=O)ccc1-c1cn[nH]c1` [Example 246, 1-(2,5-difluorobenzyl)-3-(6-methoxy-5-(1H-pyrazol-4-yl)pyridin-2-yl)imidazolidin-2-one] displayed an IC50 of 0.0021 to 0.02 µM. `COc1nc(N2CCN(Cc3cc(F)cc(F)c3)C2=O)ccc1-c1cn[nH]c1` [Example 247, 1-(3,5-difluorobenzyl)-3-(6-methoxy-5-(1H-pyrazol-4-yl)pyridin-2-yl)imidazolidin-2-one]: the IC50 is < 0.002 µM. The figure for `COc1nc(N2CCN(Cc3cccc(F)c3C)C2=O)ccc1-c1cn[nH]c1` [Example 248, 1-(3-fluoro-2-methylbenzyl)-3-(6-methoxy-5-(1H-pyrazol-4-yl)pyridin-2-yl)imidazolidin-2-one] is < 0.002 µM; for `COc1nc(N2CCN(Cc3ccc(F)cc3C)C2=O)ccc1-c1cn[nH]c1` [Example 249, 1-(4-fluoro-2-methylbenzyl)-3-(6-methoxy-5-(1H-pyrazol-4-yl)pyridin-2-yl)imidazolidin-2-one] it is 0.0201 to 0.2 µM. `COc1nc(N2CCN(Cc3cc(F)ccc3C)C2=O)ccc1-c1cn[nH]c1` [Example 250, 1-(5-fluoro-2-methylbenzyl)-3-(6-methoxy-5-(1H-pyrazol-4-yl)pyridin-2-yl)imidazolidin-2-one] displayed an IC50 of 0.0021 to 0.02 µM. In turn, `COc1cc(F)ccc1CN1CCN(c2ccc(-c3cn[nH]c3)c(OC)n2)C1=O` [Example 251, 1-(4-fluoro-2-methoxybenzyl)-3-(6-methoxy-5-(1H-pyrazol-4-yl)pyridin-2-yl)imidazolidin-2-one] yielded an IC50 of 0.0201 to 0.2 µM.

On to `COc1cccc(CN2CCN(c3ccc(-c4cn[nH]c4)c(OC)n3)C2=O)c1F` [Example 252, 1-(2-fluoro-3-methoxybenzyl)-3-(6-methoxy-5-(1H-pyrazol-4-yl)pyridin-2-yl)imidazolidin-2-one], for which the IC50 was 0.0021 to 0.02 µM. The figure for `COc1nc(N2CCN(Cc3cccnc3)C2=O)ccc1-c1cn[nH]c1` [Example 253] is 0.0021 to 0.02 µM. With `COc1nc(N2CCN(CC3CCCO3)C2=O)ccc1-c1cn[nH]c1` (centres unmarked) [Example 254, 1-(6-methoxy-5-(1H-pyrazol-4-yl)pyridin-2-yl)-3-((tetrahydrofuran-2-yl)methyl)imidazolidin-2-one], the IC50 was 0.0201 to 0.2 µM. With `COc1nc(N2CCN(Cc3noc(C)n3)C2=O)ccc1-c1cn[nH]c1` [Example 255, 1-((6-methoxy-5-(1H-pyrazol-4-yl)pyridin-2-yl)-3-(5-methyl-1,2,4-oxadiazol-3-yl)methyl)imidazolidin-2-one], the IC50 is 0.2 to 2 µM.

`COc1nc(N2CCN(Cc3cccc(Cl)c3)C2=O)ccc1-c1cn[nH]c1` [Example 256, 1-(3-chlorobenzyl)-3-(6-methoxy-5-(1H-pyrazol-4-yl)pyridin-2-yl)imidazolidin-2-one] returned an IC50 of 0.0021 to 0.02 µM. With `COc1nc(N2CCN(Cc3cccc(C)c3)C2=O)ccc1-c1cn[nH]c1` [Example 257, 1-(6-methoxy-5-(1H-pyrazol-4-yl)pyridin-2-yl)-3-(3-methylbenzyl)imidazolidin-2-one], the IC50 was in the range of 0.0021 to 0.02 µM. `COc1cc(CN2CCN(c3ccc(-c4cn[nH]c4)cc3)C2=O)ccc1F` [Example 263, 1-(4-(1H-pyrazol-4-yl)phenyl)-3-(4-fluoro-3-methoxybenzyl)imidazolidin-2-one] showed an IC50 of 0.0021 to 0.02 µM. `COc1c(F)cccc1CN1CCN(c2ccc(-c3cn[nH]c3)cc2)C1=O` [Example 264, 1-(4-(1H-pyrazol-4-yl)phenyl)-3-(3-fluoro-2-methoxybenzyl)imidazolidin-2-one] showed an IC50 of 0.0201 to 0.2 µM.

`CCc1cc(N2CCN([C@H](C)c3cccc(OC)c3)C2=O)ccc1-c1cn[nH]c1` [Example 272, (R)-1-(3-ethyl-4-(1H-pyrazol-4-yl)phenyl)-3-(1-(3-methoxyphenyl)ethyl)imidazolidin-2-one] had an IC50 of 0.0021 to 0.02 µM. `COc1cccc(CN2CCN(c3ccc(-c4cn[nH]c4)c(C)c3)C2=O)c1` [Example 273, 1-(3-methoxybenzyl)-3-(3-methyl-4-(1H-pyrazol-4-yl)phenyl)imidazolidin-2-one] had an IC50 of 0.0021 to 0.02 µM. The figure for `COc1cc(F)cc(CN2CCN(c3ccc(-c4cn[nH]c4)c(C)c3)C2=O)c1` [Example 274, 1-(3-fluoro-5-methoxybenzyl)-3-(3-methyl-4-(1H-pyrazol-4-yl)phenyl)imidazolidin-2-one] is < 0.002 µM; for `COc1cccc(CN2CCN(c3ccc(-c4cn[nH]c4)c(C(F)(F)F)c3)C2=O)c1` [Example 275, 1-(4-(1H-pyrazol-4-yl)-3-(trifluoromethyl)phenyl)-3-(3-methoxybenzyl)imidazolidin-2-one] it is 0.0201 to 0.2 µM.

The molecule `COc1cc(F)cc(CN2CCN(c3ccc(-c4cn[nH]c4)c(C(F)(F)F)c3)C2=O)c1` [Example 276, 1-(4-(1H-pyrazol-4-yl)-3-(trifluoromethyl)phenyl)-3-(3-fluoro-5-methoxybenzyl)imidazolidin-2-one] came in with an IC50 of 0.0201 to 0.2 µM. Molecule `COc1cccc(CN2CCN(c3ccc(-c4cn[nH]c4)c(C#N)c3)C2=O)c1` [Example 277, 5-(3-(3-methoxybenzyl)-2-oxoimidazolidin-1-yl)-2-(1H-pyrazol-4-yl)benzonitrile] came in with an IC50 of 0.2 to 2 µM. `COc1cc(F)cc(CN2CCN(c3ccc(-c4cn[nH]c4)c(C#N)c3)C2=O)c1` [Example 278, 5-(3-(3-fluoro-5-methoxybenzyl)-2-oxoimidazolidin-1-yl)-2-(1H-pyrazol-4-yl)benzonitrile] returned an IC50 of 0.0201 to 0.2 µM. In turn, `COc1cc(CN2CCN(c3ccc(-c4cn[nH]c4)c(C#N)c3)C2=O)ccc1F` [Example 279, 5-(3-(4-fluoro-3-methoxybenzyl)-2-oxoimidazolidin-1-yl)-2-(1H-pyrazol-4-yl)benzonitrile] yielded an IC50 of 0.2 to 2 µM. In turn, `CCc1cc(N2CCN(Cc3cc(F)cc(OC)c3)C2=O)ccc1-c1cn[nH]c1` [Example 280, 1-(3-ethyl-4-(1H-pyrazol-4-yl)phenyl)-3-(3-fluoro-5-methoxybenzyl)imidazolidin-2-one] had an IC50 of 0.0021 to 0.02 µM. Take `CCc1cc(N2CCN(Cc3ccc(F)c(OC)c3)C2=O)ccc1-c1cn[nH]c1` [Example 281, 1-(3-ethyl-4-(1H-pyrazol-4-yl)phenyl)-3-(4-fluoro-3-methoxybenzyl)imidazolidin-2-one]: the IC50 is 0.0021 to 0.02 µM.

In turn, `COc1cc(CN2CCN(c3ccc(-c4cn[nH]c4)c(C)c3)C2=O)ccc1F` [Example 282, 1-(4-fluoro-3-methoxybenzyl)-3-(3-methyl-4-(1H-pyrazol-4-yl)-phenyl)imidazolidin-2-one] gave an IC50 of 0.0021 to 0.02 µM.

For the molecule `COc1cc(CN2CCN(c3ccc(-c4cn[nH]c4)c(C(F)(F)F)c3)C2=O)ccc1F` [Example 283, 1-(4-(1H-pyrazol-4-yl)-3-(trifluoromethyl)phenyl)-3-(4-fluoro-3-methoxybenzyl)imidazolidin-2-one], the IC50 was 0.2 to 2 µM. `Cc1cc(N2CCN(Cc3cccc(OCC4CC4)c3)C2=O)ccc1-c1cn[nH]c1` [Example 284, 1-(3-(cyclopropylmethoxy)benzyl)-3-(3-methyl-4-(1H-pyrazol-4-yl)phenyl)imidazolidin-2-one] showed an IC50 of 0.0201 to 0.2 µM.
